ChEMBL document CHEMBL6078663, “Cyclopeptide Avellanins D-O with Antimalarial Activity from the Mariana Trench Anemone-Derived Hamigera ingelheimensis MSC5” (J Nat Prod, 2024)

Tested on: Plasmodium falciparum
Assay: Antimalarial activity against synchronous ring-stage Plasmodium falciparum 3D7 infected in erythrocytes incubated for 48 hrs by fluorescence based method
Type: functional, organism-based
Details: 3D7, Erythrocyte

SMILES	IC50
CN1C(=O)[C@@H]2CCCN2C(=O)c2ccccc2NC(=O)[C@H](Cc2ccccc2)NC(=O)[C@@H](CO)NC(=O)[C@H]1Cc1ccccc1	16 µM
C[C@H]1NC(=O)[C@@H](Cc2ccccc2)N(C)C(=O)[C@@H]2CCCN2C(=O)c2ccccc2NC(=O)[C@H](CCO)NC1=O	> 50 µM
CN1C(=O)[C@@H]2CCCN2C(=O)c2ccccc2NC(=O)[C@H](Cc2ccccc2)NC(=O)CNC(=O)[C@H]1Cc1ccccc1	3 µM

The remaining lines, values ahead:

IC50	SMILES
9.4 µM	C[C@H]1NC(=O)[C@@H](Cc2ccccc2)N(C)C(=O)[C@@H]2CCCN2C(=O)c2ccccc2NC(=O)[C@H](Cc2ccccc2)NC1=O
10 µM	C[C@H]1NC(=O)[C@@H](Cc2ccccc2)N(C)C(=O)[C@@H]2CCCN2C(=O)c2ccccc2NC(=O)[C@H](Cc2ccc(O)cc2)NC1=O
0.19 µM	C[C@H]1NC(=O)[C@@H](Cc2ccccc2)N(C)C(=O)[C@@H]2CCCN2C(=O)c2ccccc2NC(=O)[C@H](Cc2ccc(O)c(Cl)c2)NC1=O
